Consider 24 compounds from US20150232509A1, “SPIRO RING COMPOUNDS AS HEPATITIS C VIRUS (HCV) INHIBITORS” (SUNSHINE LAKE PHARMA CO., LTD., priority 2012, published 2015).

One test relates to HCV GT1a replicon cells. The experiment in a line: HCV Replicon assay, GT1a replicon cells (Luciferase / NEO qPCR). It is filed as cell-based. Particulars: Hepatitis C virus, 72 hours incubation, read-out: EC50 against HCV 1a genotype. The method, then:
(§1) An HCV Replicon assay was utilized in the present invention, and was prepared, developed and validated as described in Science, 1999, 285 (5424), 110-3 and J. Virol., 2003, 77 (5), 3007-19.
(§2) HCV GT1a, GT1b and GT2a replicon cells were used to test the currently described compound series as well as wild-type cells HCV 1b and resistant cells Y93H, L31F, P32L and 1302V. […]
(§3) The GT1a cells and GT1b cells were seeded into 96-well plates (8,000 cells in 125 μL/well) respectively; each compound was diluted to desired concentration using 5-fold serial dilutions protocol, 10 doses in duplicate, and added to wells with POD™ 810 Plate Assembler. The final concentration of DMSO was 0.5%; the plates were incubated in a CO2 incubator for 72 hours; after that, 40 μL of Luciferase assay substrate (Promega Bright-Glo) was added to each well, and detected by a chemiluminescence detection system (Topcount Microplate Scintillation and Luminescence Counter) 5 minutes later; data analysis.
(§4) The GT1a cells and GT1b cells were seeded into 96-well plates (8,000 cells in 125 μL/well) respectively; each compound was diluted to desired concentration using 5-fold serial dilutions protocol, 10 doses in duplicate, and added to wells with POD™ 810 Plate Assembler., the final concentration of DMSO was 0.5%; the cells were incubated in a CO2 incubator for 72 hours; quantitative PCR. • Sample preparation: the supernatant was removed, 100 μL of FCW buffer solution was added to each well, washed carefully and discarded the solution; 50 μL of lysate FCP was added to each well, the cells was lysed as PCR template and PCR template was diluted with DEPC water as sample template. • Quantitative PCR: preparation of reaction mixture according to PCR system; the reaction mixture was dispensed into a 384-well PCR reaction plate (specially for quantitative); and a standard template which was diluted in proportion was distributed into the plate; and the sample template was distributed into the plate; then the 384-well plate was sealed with closure plate membrane; the […] PCR machine was operated by procedures; data analysis. 3. Data Processing: the EC50 Values of Compounds were Analyzed by GraphPad Prism Software.
Background: In antiviral work, replicon cells carry a viral genome segment that copies itself.

Another test relates to HCV GT1b replicon cells. The experiment in a line: HCV Replicon assay, GT1b replicon cells (Luciferase / NEO qPCR). The class given is cell-based. The conditions noted are these: Hepatitis C virus, 72 hours incubation, read-out: EC50 against HCV 1b genotype. The method, then:
as §1, §2, §3, §4

A word on the EC50: it is the concentration needed to bring the measured effect to its halfway point. Regarding `COC(=O)N[C@H](C(=O)N1CCC[C@H]1c1ncc(-c2ccc(-c3ccc(-c4cnc([C@@H]5CCCN5C(=O)[C@@H](NC(=O)OC)C(C)C)[nH]4)c4c3C3(CCOC3)CC4)cc2)[nH]1)C(C)C` (stereo partly drawn) [Example 52], the concentration for a half-maximal effect (EC50) in the test on HCV GT1a replicon cells came to 3.67 nM; in the test on HCV GT1b replicon cells it was 0.033 nM.

For the compound `CNC(=O)N[C@H](C(=O)N1C2CC2C[C@H]1c1nc2ccc(-c3ccc(-c4ccc(-c5cnc([C@@H]6CCCN6C(=O)[C@@H](NC(=O)OC)C(C)C)[nH]5)cc4)c4c3C3(CCCC3)CC4)cc2[nH]1)C(C)C` (stereo partly drawn) [Example 11], the EC50 in the test on HCV GT1a replicon cells was 0.447 nM; in the test with HCV GT1b replicon cells, 0.096 nM.

In the case of `COC(=O)N[C@@H](C)C(=O)N1CCC[C@H]1c1ncc(-c2ccc(-c3ccc(-c4cnc([C@@H]5CCCN5C(=O)[C@H](C)NC(=O)OC)[nH]4)c4c3C3(CCCC3)CC4)cc2)[nH]1` [Example 12], the EC50 in the test with HCV GT1a replicon cells was found to be 0.856 nM; with HCV GT1b replicon cells it was 0.018 nM.

`CCC(C)[C@H](NC(=O)OC)C(=O)N1C2CC2C[C@H]1c1ncc(-c2ccc(-c3ccc(-c4ccc(-c5cnc([C@@H]6CC7CC7N6C(=O)[C@@H](NC(=O)OC)C(C)CC)[nH]5)cc4)c4c3CCC43CCCC3)cc2)[nH]1` (stereo partly drawn) [Example 24]: the figures for the concentration for a half-maximal effect (EC50) with HCV GT1a replicon cells and in the test with HCV GT1b replicon cells were 2.69 nM and 0.055 nM, respectively.

For the compound `COC(=O)N[C@H](C(=O)N1CCC[C@H]1C(=O)Nc1cccc(-c2ccc(-c3ccc(-c4cnc([C@@H]5CCCN5C(=O)[C@@H](NC(=O)OC)C(C)C)[nH]4)cc3)c3c2CCC32CCCC2)c1)C(C)C` [Example 34], the EC50 with HCV GT1a replicon cells turned out to be 0.837 nM; in the test on HCV GT1b replicon cells it was 0.017 nM.

For `COC(=O)N[C@H](C(=O)N1CCC[C@H]1c1ncc(-c2ccc(-c3ccc(-c4cnc([C@@H]5CCCN5C(=O)[C@@H](NC(=O)OC)C(C)C)[nH]4)c4c3CCC43CCCC3)cc2)[nH]1)C(C)C` [Example 5], the concentration for a half-maximal effect (EC50) in the test with HCV GT1a replicon cells turned out to be 2.49 nM; in the test with HCV GT1b replicon cells, 0.086 nM.

As to `COC(=O)N[C@H](C(=O)N1CCC[C@H]1c1ncc(-c2ccc(-c3ccc(-c4ccc5nc([C@@H]6CCCN6C(=O)[C@@H](NC(=O)OC)C(C)C)[nH]c5c4)c4c3CCCC43CCC3)s2)[nH]1)C(C)C` [Example 41], the EC50 in the test on HCV GT1a replicon cells amounted to 0.876 nM; in the test with HCV GT1b replicon cells, 0.043 nM.

In the case of `COC(=O)N[C@H](C(=O)N1C[C@@H](C)C[C@H]1c1nc(-c2ccc(-c3ccc(-c4ccc5nc([C@@H]6C[C@H](C)CN6C(=O)[C@@H](NC(=O)OC)C(C)C)[nH]c5c4)c4c3C3(CCCC3)CC4)cc2)c[nH]1)C(C)C` [Example 16], the figures for the EC50 in the test with HCV GT1a replicon cells and in the test on HCV GT1b replicon cells were 0.008 nM and 0.005 nM, respectively.

Consider `COC(=O)NC(C(=O)N1CCCC1c1ncc(-c2ccc(-c3ccc(-c4ccc5[nH]c(C6CCCN6C(=O)C(NC(=O)OC)C(C)C)nc5c4)c4c3CCC43CCCC3)cc2)[nH]1)C(C)C` (stereo not drawn) [Example 56], for which the EC50 with HCV GT1a replicon cells was 0.138 nM; in the test with HCV GT1b replicon cells it was 0.036 nM.

Turning to `COC(=O)N[C@H](C(=O)N1CC(F)(F)C[C@H]1c1nc(-c2ccc(-c3ccc(-c4cnc([C@@H]5CC(F)(F)CN5C(=O)[C@@H](NC(=O)OC)C(C)C)[nH]4)c4c3C3(CCOCC3)CC4)cc2)c[nH]1)C(C)C` [Example 42], the EC50 worked out at 6.89 nM with HCV GT1a replicon cells and 0.109 nM in the test with HCV GT1b replicon cells.

As to `COC(=O)N[C@H](C(=O)N1CCC[C@H]1c1ncc(-c2ccc(-c3ccc(-c4cnc([C@@H]5CCCN5C(=O)[C@@H](NC(=O)OC)C5CCCCC5)[nH]4)c4c3C3(CCCC3)CC4)cc2)[nH]1)C1CCCCC1` [Example 15], the concentration for a half-maximal effect (EC50) in the test on HCV GT1a replicon cells was determined as 0.886 nM; with HCV GT1b replicon cells, 0.029 nM.

Regarding `COC(=O)N[C@H](C(=O)N1CCC[C@H]1c1ncc(-c2ccc(-c3ccc(-c4cnc([C@@H]5CCCN5C(=O)[C@@H](NC(=O)OC)C(C)C)[nH]4)c4c3C3(CC4)CCN(C)C3)cc2)[nH]1)C(C)C` (stereo partly drawn) [Example 48], the 50% effective concentration (EC50) is 3.08 nM with HCV GT1a replicon cells and 0.24 nM with HCV GT1b replicon cells.

For `COC(=O)N[C@H](C(=O)N1CCC[C@H]1C(=O)Nc1ccc(-c2ccc(-c3ccc(NC(=O)[C@@H]4CCCN4C(=O)[C@@H](NC(=O)OC)C(C)C)cc3)c3c2CCC32CCCC2)cc1)C(C)C` [Example 20], the EC50 in the test on HCV GT1a replicon cells stood at 5.9 nM; in the test on HCV GT1b replicon cells, 1.03 nM.

For the compound `COC(=O)N[C@H](C(=O)N1CCC[C@H]1c1ncc(-c2ccc(-c3ccc(-c4ccc5nc([C@@H]6CCCN6C(=O)[C@@H](NC(=O)OC)C(C)C)[nH]c5c4)cc3)c3c2CCC32CCCC2)[nH]1)C(C)C` [Example 29], the EC50 in the test on HCV GT1a replicon cells was 8.68 nM; with HCV GT1b replicon cells, 0.218 nM.

Consider `COC(=O)N[C@H](C(=O)N1CCC[C@H]1c1nc2cc(-c3ccc(-c4ccc5[nH]c([C@@H]6CCCN6C(=O)[C@@H](NC(=O)OC)C(C)C)nc5c4)c4c3CCC43CCCC3)ccc2[nH]1)C(C)C` [Example 1], for which the EC50 with HCV GT1a replicon cells was 0.102 nM; with HCV GT1b replicon cells, 0.041 nM.

For the compound `COC(=O)N[C@H](C(=O)N1C2CC2C[C@H]1c1ncc(-c2ccc(-c3ccc(-c4ccc(-c5cnc([C@@H]6CC7CC7N6C(=O)[C@@H](NC(=O)OC)C(C)C)[nH]5)cc4)c4c3CCC43CCCC3)cc2)[nH]1)C(C)C` (stereo partly drawn) [Example 23], the EC50 with HCV GT1a replicon cells was found to be 0.334 nM; in the test on HCV GT1b replicon cells it was 0.012 nM.

Consider `COC(=O)N[C@H](C(=O)N1CCCC[C@H]1c1ncc(-c2ccc(-c3ccc(-c4cnc([C@@H]5CCCCN5C(=O)[C@@H](NC(=O)OC)C(C)C)[nH]4)c4c3C3(CCCC3)CC4)cc2)[nH]1)C(C)C` [Example 26], for which the 50% effective concentration (EC50) in the test on HCV GT1a replicon cells was 13.7 nM; in the test with HCV GT1b replicon cells, 0.088 nM.

`CC(C)[C@H](NC(=O)N1CCOCC1)C(=O)N1CCC[C@H]1c1ncc(-c2ccc(N3CCC(c4cnc([C@@H]5CCCN5C(=O)[C@@H](NC(=O)N5CCOCC5)C(C)C)[nH]4)CC3)c3c2CCC32CCCC2)[nH]1` [Example 8]: the EC50 with HCV GT1a replicon cells was found to be 5.44 nM; in the test with HCV GT1b replicon cells it was 1.33 nM.

For `COC(=O)N[C@H](C(=O)N1CCS[C@H]1c1ncc(-c2ccc(-c3ccc(-c4cnc([C@@H]5SCCN5C(=O)[C@@H](NC(=O)OC)C(C)C)[nH]4)c4c3C3(CCCC3)CC4)cc2)[nH]1)C(C)C` [Example 28], the EC50 in the test on HCV GT1a replicon cells amounted to 4.57 nM; in the test with HCV GT1b replicon cells, 0.667 nM.

As to `COC(=O)N[C@H](C(=O)N1CCC[C@H]1c1nc(-c2ccc(-c3ccc(-c4ccc5nc([C@@H]6CCCN6C(=O)[C@@H](NC(=O)OC)C(C)C)[nH]c5c4)c4c3CCC43CCCC3)c3c2CCC3)c[nH]1)C(C)C` [Example 36], the concentration giving a half-maximal response (EC50) in the test on HCV GT1a replicon cells was determined as 1.08 nM; with HCV GT1b replicon cells, 0.089 nM.

Take `COC(=O)N[C@H](C(=O)N1C2CCC(C2)[C@H]1c1ncc(-c2ccc(-c3ccc(-c4cnc([C@@H]5C6CCC(C6)N5C(=O)[C@@H](NC(=O)OC)C(C)C)[nH]4)c4c3C3(CCCC3)CC4)cc2)[nH]1)C(C)C` (stereo partly drawn) [Example 25]: the EC50 was 10.7 nM in the test on HCV GT1a replicon cells and 0.032 nM in the test on HCV GT1b replicon cells.

For `COC(=O)N[C@H](C(=O)N1CCC[C@H]1c1ncc(-c2ccc(-c3ccc(-c4cnc([C@@H]5CCCN5C(=O)[C@@H](NC(=O)OC)C(C)C)[nH]4)c4c3C3(CCCO3)CCC4)cc2)[nH]1)C(C)C` (stereo partly drawn) [Example 51], the EC50 in the test with HCV GT1a replicon cells stood at 4.57 nM; in the test on HCV GT1b replicon cells, 0.086 nM.

For the compound `COC(=O)N[C@H](C(=O)N1C[C@@H](F)C[C@H]1c1ncc(-c2ccc(-c3ccc(-c4cnc([C@@H]5C[C@H](F)CN5C(=O)[C@@H](NC(=O)OC)C(C)C)[nH]4)c4c3C3(CCCC3)CC4)cc2)[nH]1)C(C)C` [Example 17], the results for the EC50 in the test with HCV GT1a replicon cells and in the test with HCV GT1b replicon cells were 0.475 nM and 0.072 nM, respectively.

On to `COC(=O)N[C@H](C(=O)N1CCC[C@H]1c1ncc(-c2ccc3cc(-c4ccc(-c5cnc([C@@H]6CCCN6C(=O)[C@@H](NC(=O)OC)C(C)C)[nH]5)c5c4C4(CCCC4)CC5)ccc3c2)[nH]1)C(C)C` [Example 30], for which the EC50 came out at 3.2 nM in the test on HCV GT1a replicon cells and 0.074 nM in the test on HCV GT1b replicon cells.
